Our source for the kcat/Km and IC50 values is US9873883B2, “Glyphosate resistant plants and associated methods” (Dow AgroSciences LLC, priority 2012, dated 2018).

Assay [1] has as its target T1, Glycine max (soybean) EPSP synthase DGT-1 variant DGT-1 v8 (T→I, P→S; TIPS) (Glycine max, UniProt I1J7U9, P187S/T183I).
T1 sequence (I1J7U9 with tags, fused parts or gaps T183I/P187S): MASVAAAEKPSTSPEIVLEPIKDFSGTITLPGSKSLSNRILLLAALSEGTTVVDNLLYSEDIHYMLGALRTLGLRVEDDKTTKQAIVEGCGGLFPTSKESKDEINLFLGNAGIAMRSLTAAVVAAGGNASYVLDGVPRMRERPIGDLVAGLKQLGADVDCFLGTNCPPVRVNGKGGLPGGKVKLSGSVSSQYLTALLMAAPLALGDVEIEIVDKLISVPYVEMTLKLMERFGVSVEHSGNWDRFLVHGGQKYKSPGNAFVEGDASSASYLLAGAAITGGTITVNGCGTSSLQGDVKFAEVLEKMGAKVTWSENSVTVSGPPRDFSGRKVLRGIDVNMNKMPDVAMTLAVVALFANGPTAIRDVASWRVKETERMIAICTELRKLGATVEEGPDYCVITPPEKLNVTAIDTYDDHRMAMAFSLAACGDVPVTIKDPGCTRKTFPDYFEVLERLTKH
Nature of the assay: In vitro kinetic assay (inorganic phosphate production, malachite green). It counts as biochemical. An excerpt: (§1) The following Class I enzymes: DGT-1 from Glycine max, DGT-3 from Brassica napus (GENBANK ACC NO: P17688), and DGT-7 from Triticum aestivum (GENBANK ACC NO: EU977181) were used as a comparison. The Class I EPSP synthase enzymes and mutant variants thereof were synthesized and evaluated. A mutation introduced into the plant EPSP synthase enzymes consisted of the Glycine to Alanine mutation made within the EPSP synthase enzyme at a similar location as that of the G96A mutation from the E. coli version of the enzyme. In addition, Threonine to Isoleucine and Proline to Serine mutations were introduced within these Class I EPSP synthase enzymes at analogous positions as that of amino acid 97 (T to I) and amino acid 101 (P to S) in the EPSP synthase of E. coli as described in Funke et al., (2009).
(§2) The location of the amino acid residue which was mutated from glycine to alanine is indicated by the first asterisk. The location of the amino acid residue which was mutated from threonine to isoleucine is indicated by the second asterisk. The location of the third amino acid residue which was mutated from proline to serine is indicated by the third asterisk. These mutations were introduced into different versions of DGT-1, DGT-3, and DGT-7. The different versions of the genes which contain the mutations are described in more detail below.
(§3) Additional constructs containing the dgt-1, dgt-3 and dgt-7 were synthesized. These constructs were used for in vitro testing of the dgt-1 v5, dgt-1 v6, dgt-1 v7, dgt-1 v8, dgt-3 v6, dgt-3 v7, dgt-3 v8, dgt-7 v5, dgt-7 v6, dgt-7 v7, and dgt-7 v8 gene sequences were outsourced to GeneArt for synthesis and cloning. The synthesized genes were cloned into the pET28 expression vector. The resulting constructions were labeled as pDAB102028 containing dgt-1 v5, pDAB102029 containing dgt-1 v6, pDAB102032 containing dgt-1 v7, pDAB102034 containing dgt-1 v8, pDAB100429 containing dgt-3 v6, pDAB100442 containing dgt-3 v7, pDAB100430 containing dgt-3 v8, pDAB102036 containing dgt-7 v5, pDAB102038 containing dgt-7 v6, pDAB102040 containing dgt-7 v7, and pDAB102042 containing dgt-7 v8.
(§4) Recombinant DGT proteins were overexpressed in Rosetta2™ (DE3) cells (Novagen, Madison, Wis.) from the constructs described above. A single colony was used to inoculate 50 mL starter cultures of LB containing chloramphenicol (25 μg/mL) and kanamycin (50 μg/mL) which were cultivated overnight at 37° C. The overnight cultures were used to inoculate 1 L of LB containing chloramphenicol (25 μg/mL) and kanamycin (50 μg/mL). The cultures were grown at 37° C. to an O.D.600=0.6 then placed in an ice water bath for 10 minutes. Expression of the target proteins was achieved by addition of IPTG to a final concentration of 500 μM. Induction was allowed to proceed overnight at 20° C. followed by harvesting via centrifugation at 8,000 rpm for 20 minutes. The cell pellets were stored at −80° C. until required for purification. All purification steps were carried out at 4° C.
(§5) Cell pellets from 1 L cultures were resuspended in 20-30 mL Buffer A (50 mM HEPES pH 7.5, 150 mM KCl, 2 mM DTT, 1 mM EDTA, 20 mM imidazole, and 5% glycerol). COMPLETE™ protease inhibitor cocktail (1 tablet/50 mL, Roche, Indianapolis, Ind.) and lysozyme (1 mg/mL, Sigma-Aldrich, St. Louis, Mo.) were then added and the suspension was stirred for 20 minutes. Cell lysis was performed using a Branson Sonifier 250 (3×60 second bursts) followed by removal of the cell debris by centrifugation at 16,000 rpm for 45 minutes. DGT enzymes were purified to homogeneity in one step via immobilized metal affinity chromatography (IMAC) using a 5 mL HisTrap FF crude column. The column was equilibrated in Buffer A and the sample was loaded in the same buffer. The column was then washed with 10 column volumes of Buffer A followed by elution in a 0-100% Buffer B (50 mM HEPES pH 7.5, 200 mM KCl, 2 mM DTT, 1 mM EDTA, 500 mM imidazole, and 5% glycerol) linear gradient over 25 column volumes. […]

Assay [2] concerns the target T2, Brassica napus (canola) EPSP synthase DGT-3 (GENBANK P17688) variant DGT-3 v8 (T→I, P→S; TIPS) (Brassica napus, UniProt P17688, P178S/T174I).
T2 construct: made in house; host or cells: E. coli Rosetta2 (DE3)
T2 sequence (P17688 73-516 T174I/P178S): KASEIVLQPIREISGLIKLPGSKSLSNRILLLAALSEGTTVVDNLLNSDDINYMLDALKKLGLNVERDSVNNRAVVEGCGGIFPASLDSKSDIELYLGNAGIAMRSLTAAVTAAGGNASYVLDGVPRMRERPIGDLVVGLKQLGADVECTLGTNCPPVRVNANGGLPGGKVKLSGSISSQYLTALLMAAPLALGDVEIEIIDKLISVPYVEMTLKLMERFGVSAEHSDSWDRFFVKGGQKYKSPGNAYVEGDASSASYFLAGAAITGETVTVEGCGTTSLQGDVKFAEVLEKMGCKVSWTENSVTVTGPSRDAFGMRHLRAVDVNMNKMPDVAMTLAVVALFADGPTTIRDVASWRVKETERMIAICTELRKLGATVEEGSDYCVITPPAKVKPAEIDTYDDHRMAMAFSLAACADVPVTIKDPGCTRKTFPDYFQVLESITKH
Described as above. It counts as biochemical.
Text: as §1, §2, §3, §4, §5

Where [3] appears, read: IC50 (glyphosate), at 60 μM PEP.
[4] abbreviates: tolerance to glyphosate, PEP concentration not given.

Take `C=C(OP(=O)(O)O)C(=O)O` [PEP, phosphoenolpyruvate]: the specificity constant (kcat/Km) in assay [1] (PEP, pH 7.5, 1 mM S3P) came to 12300 M⁻¹ s⁻¹; in assay [2] (PEP, pH 7.5, 1 mM S3P), 32900 M⁻¹ s⁻¹.

On to `O=C(O)CNCP(=O)(O)O` [glyphosate, N-(phosphonomethyl)glycine], for which the IC50 was 5.9 mM in assay [1] (setting [3]); 13.3 mM in assay [1] (IC50 (glyphosate), at 1 mM PEP); 3 to 6 mM in assay [1] (setting [4]); 4.8 mM in assay [2] (setting [3]); 13.3 mM in assay [2] (IC50 (glyphosate), at 1 mM PEP); 3 to 6 mM in assay [2] (setting [4]).

As usually defined, the kcat/Km is the turnover number divided by the Michaelis constant. As usually defined, the IC50 is the midpoint of a concentration-inhibition curve. A high value points to weaker potency in that assay.
